Results as given in PubChem BioAssay AID330 (DTP/NCI, 2004).
Where “and” joins values, the source holds several entries; their conditions need not be identical. Equal entries are not always repeated. Inconclusive results and toxic doses are left out.

Test system: P388 leukemia ip, CD2F1 mice, survival T/C
Assay: NCI In Vivo Anticancer Drug Screen. Data for tumor model P388 Leukemia (intraperitoneal) in CD2F1 (CDF1) mice
Conditions: endpoint: median survival time, higher = longer survival
Summary of the method: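 Mice carrying the transplanted tumor received test compound or vehicle. Survival was recorded in each group, and the value is the treated-group measurement divided by that of the vehicle-treated control group.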

[1] = dose: 60.0 mg/kg/injection, schedule: Q01DX005 (ip), vehicle: Klucel (hydroxypropylcellulose) (HPC)
[2] = dose: 120.0 mg/kg/injection, schedule: Q01DX005 (ip), vehicle: Klucel (hydroxypropylcellulose) (HPC)
[3] = dose: 60.0 mg/kg/injection, schedule: Q01DX005 (ip), vehicle: saline with Tween-80
[4] = dose: 120.0 mg/kg/injection, schedule: Q01DX005 (ip), vehicle: saline with Tween-80
[5] = dose: 240.0 mg/kg/injection, schedule: Q01DX005 (ip), vehicle: saline with Tween-80
[6] = dose: 25.0 mg/kg/injection, schedule: Q01DX005 (ip), vehicle: Klucel (hydroxypropylcellulose) (HPC)
[7] = dose: 50.0 mg/kg/injection, schedule: Q01DX005 (ip), vehicle: Klucel (hydroxypropylcellulose) (HPC)
[8] = dose: 50.0 mg/kg/injection, schedule: Q01DX009 (ip), vehicle: saline with Tween-80
[9] = dose: 100.0 mg/kg/injection, schedule: Q01DX009 (ip), vehicle: saline with Tween-80
[10] = dose: 12.5 mg/kg/injection, schedule: Q01DX009 (ip), vehicle: saline with Tween-80
[11] = dose: 25.0 mg/kg/injection, schedule: Q01DX009 (ip), vehicle: saline with Tween-80
[12] = dose: 100.0 mg/kg/injection, schedule: Q04DX003 (ip), vehicle: saline
[13] = dose: 100.0 mg/kg/injection, schedule: Q01DX005 (ip), vehicle: Klucel (hydroxypropylcellulose) (HPC)
[14] = dose: 200.0 mg/kg/injection, schedule: Q01DX005 (ip), vehicle: Klucel (hydroxypropylcellulose) (HPC)
[15] = dose: 50.0 mg/kg/injection, schedule: Q01DX009 (ip), vehicle: Klucel (hydroxypropylcellulose) (HPC)

## COc1ccc2c(c1OC)C(=O)O[C@@H]2[C@H]1c2c(cc3c(c2OC)OCO3)CCN1C
dose: 62.5 mg/kg/injection, schedule: Q01DX010 (ip), vehicle: saline
  T/C: 100 % of control
dose: 125.0 mg/kg/injection, schedule: Q01DX010 (ip), vehicle: saline
  T/C: 95 % of control

## CCOSN1CCOCC1
dose: 25.0 mg/kg/injection, schedule: Q04DX002 (ip), vehicle: saline
  T/C: 101 % of control
dose: 50.0 mg/kg/injection, schedule: Q04DX002 (ip), vehicle: saline
  T/C: 101 % of control
dose: 100.0 mg/kg/injection, schedule: Q04DX002 (ip), vehicle: saline
  T/C: 100 % of control and 93 % of control

## C1=Cc2cc(CN3CCOCC3)ccc2Nc2ccccc21
[1]
  T/C: 99 % of control
[2]
  T/C: 89 % of control

## CCCC/C=C(\C)C(O)C(C)/C=C(\C)CCC(O)C(C)C(O)C(C)C(O)C(C)C1OC(C(C)C(=O)O)CCC1C (stereo not given)
dose: 1.5 mg/kg/injection, schedule: Q01DX005 (ip), vehicle: Klucel (hydroxypropylcellulose) (HPC)
  T/C: 103 % of control and 105 % of control
dose: 3.0 mg/kg/injection, schedule: Q01DX005 (ip), vehicle: Klucel (hydroxypropylcellulose) (HPC)
  T/C: 99 % of control and 108 % of control
dose: 6.0 mg/kg/injection, schedule: Q01DX005 (ip), vehicle: Klucel (hydroxypropylcellulose) (HPC)
  T/C: 102 % of control and 109 % of control
dose: 12.0 mg/kg/injection, schedule: Q01DX005 (ip), vehicle: Klucel (hydroxypropylcellulose) (HPC)
  T/C: 99 % of control and 100 % of control

## O=C1SC/C(=N\N=c2/scc(-c3ccc(Br)cc3)n2-c2ccc(Br)cc2)N1Cc1ccccc1
dose: 100.0 mg/kg/injection, schedule: Q04DX002 (ip), vehicle: Klucel (hydroxypropylcellulose) (HPC)
  T/C: 91 % of control
dose: 200.0 mg/kg/injection, schedule: Q04DX002 (ip), vehicle: Klucel (hydroxypropylcellulose) (HPC)
  T/C: 92 % of control
dose: 400.0 mg/kg/injection, schedule: Q04DX002 (ip), vehicle: Klucel (hydroxypropylcellulose) (HPC)
  T/C: 90 % of control

## C=C1OC(=O)C(N)=C1C(C)=O
[3]
  T/C: 99 % of control
[4]
  T/C: 97 % of control
[5]
  T/C: 95 % of control

## Cc1csc2c3ccccc3cc(=O)n12
dose: 12.5 mg/kg/injection, schedule: Q01DX005 (ip), vehicle: Klucel (hydroxypropylcellulose) (HPC)
  T/C: 95 % of control
[6]
  T/C: 99 % of control
[7]
  T/C: 100 % of control
dose: 100.0 mg/kg/injection, schedule: Q01DX001 (ip), vehicle: Klucel (hydroxypropylcellulose) (HPC)
  T/C: 98 % of control

## CCc1ccc(NCc2ccc(CNc3ccc(CC)cc3)cc2)cc1
[8]
  T/C: 86 % of control
[9]
  T/C: 96 % of control
dose: 200.0 mg/kg/injection, schedule: Q01DX009 (ip), vehicle: saline with Tween-80
  T/C: 94 % of control

## CN(C)CCOc1ccc2c(c1)C(=O)/C(=C\c1ncc([N+](=O)[O-])n1C)C2
[10]
  T/C: 113 % of control
[11]
  T/C: 123 % of control and 94 % of control
[8]
  T/C: 121 % of control
[9]
  T/C: 123 % of control

## CC(=O)n1[nH]c(=O)ccc1=O
[12]
  T/C: 115 % of control
dose: 200.0 mg/kg/injection, schedule: Q04DX003 (ip), vehicle: saline
  T/C: 107 % of control
dose: 400.0 mg/kg/injection, schedule: Q04DX003 (ip), vehicle: saline
  T/C: 115 % of control

## [C-]#[N+]C1CCCCC1.[C-]#[N+]C1CCCCC1.[Ni].[S-]c1ccccc1.[S-]c1ccccc1
dose: 25.0 mg/kg/injection, schedule: Q04DX003 (ip), vehicle: saline with Tween-80
  T/C: 89 % of control
dose: 50.0 mg/kg/injection, schedule: Q04DX003 (ip), vehicle: saline with Tween-80
  T/C: 91 % of control
dose: 100.0 mg/kg/injection, schedule: Q04DX003 (ip), vehicle: saline with Tween-80
  T/C: 89 % of control and 93 % of control

## CCC(c1ccc(OC)cc1)C(NCC(=O)NNC(=S)Nc1cccc(C)c1)c1ccc(OC)cc1 (stereo not given)
dose: 100.0 mg/kg/injection, schedule: Q01DX001 (ip), vehicle: saline with Tween-80
  T/C: 90 % of control
dose: 200.0 mg/kg/injection, schedule: Q01DX001 (ip), vehicle: saline with Tween-80
  T/C: 96 % of control

## CSC1=NN(C(C)=O)C(c2ccccn2)S1 (stereo not given)
[7]
  T/C: 100 % of control
[13]
  T/C: 100 % of control
[14]
  T/C: 101 % of control

## Nc1ccc(O)c2c1C(=O)c1c(O)c(S(=O)(=O)O)cc(N)c1C2=O
[6]
  T/C: 108 % of control
[7]
  T/C: 102 % of control
[13]
  T/C: 105 % of control
[14]
  T/C: 102 % of control

## c1ccc(-c2cc(-c3ccccc3)o/c(=N/n3cnnc3)c2)cc1
[7]
  T/C: 99 % of control
[13]
  T/C: 89 % of control
[14]
  T/C: 89 % of control

## CC(C)N1C(=O)c2ccccc2S1(Cl)c1ccccc1 (stereo not given)
dose: 100.0 mg/kg/injection, schedule: Q04DX003 (ip), vehicle: Klucel (hydroxypropylcellulose) (HPC)
  T/C: 101 % of control
dose: 200.0 mg/kg/injection, schedule: Q04DX003 (ip), vehicle: Klucel (hydroxypropylcellulose) (HPC)
  T/C: 98 % of control
dose: 400.0 mg/kg/injection, schedule: Q04DX003 (ip), vehicle: Klucel (hydroxypropylcellulose) (HPC)
  T/C: 98 % of control

## Cc1cnc(/C=N\NC(N)=S)c2cccc(N)c12
dose: 1.57 mg/kg/injection, schedule: Q01DX009 (ip), vehicle: saline with Tween-80
  T/C: 120 % of control
dose: 3.12 mg/kg/injection, schedule: Q01DX009 (ip), vehicle: saline with Tween-80
  T/C: 103 % of control
dose: 4.32 mg/kg/injection, schedule: Q01DX005 (ip), vehicle: clinical formulation
  T/C: 121 % of control
dose: 6.25 mg/kg/injection, schedule: Q01DX009 (ip), vehicle: water
  T/C: 170 % of control
dose: 12.0 mg/kg/injection, schedule: Q01DX005 (ip), vehicle: clinical formulation
  T/C: 152 % of control
dose: 12.5 mg/kg/injection, schedule: Q01DX009 (ip), vehicle: Klucel (hydroxypropylcellulose) (HPC)
  T/C: 162 % of control and 163 % of control
dose: 12.5 mg/kg/injection, schedule: Q01DX009 (ip), vehicle: other
  T/C: 188 % of control
[10]
  T/C: 168 % of control
dose: 12.5 mg/kg/injection, schedule: Q01DX009 (ip), vehicle: saline
  T/C: 150 % of control
dose: 12.5 mg/kg/injection, schedule: Q01DX009 (ip), vehicle: water
  T/C: 189 % of control
dose: 20.0 mg/kg/injection, schedule: Q01DX005 (ip), vehicle: clinical formulation
  T/C: 155 % of control
dose: 25.0 mg/kg/injection, schedule: Q01DX009 (ip), vehicle: Klucel (hydroxypropylcellulose) (HPC)
  T/C: 179 % of control and 193 % of control
dose: 25.0 mg/kg/injection, schedule: Q01DX009 (ip), vehicle: other
  T/C: 97 % of control
[11]
  T/C: 184 % of control
dose: 25.0 mg/kg/injection, schedule: Q01DX009 (ip), vehicle: saline
  T/C: 172 % of control
dose: 25.0 mg/kg/injection, schedule: Q01DX009 (ip), vehicle: water
  T/C: 218 % of control
[15]
  T/C: 109 % of control

## OCC1OC(N(O)c2ccc(Oc3c(Cl)cc(Cl)cc3Cl)cc2)C(O)C(O)C1O (stereo not given)
[1]
  T/C: 100 % of control
[2]
  T/C: 100 % of control

## Cc1ccc(S(=O)(=O)Cc2ccccc2)cc1
dose: 50.0 mg/kg/injection, schedule: Q04DX003 (ip), vehicle: other
  T/C: 90 % of control
dose: 100.0 mg/kg/injection, schedule: Q04DX003 (ip), vehicle: other
  T/C: 95 % of control
dose: 200.0 mg/kg/injection, schedule: Q04DX003 (ip), vehicle: other
  T/C: 90 % of control

## CCN(CC)CCC[Si]1(C)c2ccccc2CCc2ccccc21
dose: 25.0 mg/kg/injection, schedule: Q04DX003 (ip), vehicle: saline
  T/C: 111 % of control
dose: 50.0 mg/kg/injection, schedule: Q04DX003 (ip), vehicle: saline
  T/C: 102 % of control
[12]
  T/C: 92 % of control

## CCC1(C)CC(C#N)(C#N)C(=O)NC1=O (stereo not given)
[3]
  T/C: 100 % of control
[4]
  T/C: 97 % of control
[5]
  T/C: 100 % of control

## CCC(=O)NC1=C(Cl)C(=O)C(NC(=O)CC)=C(Cl)C1=O
[15]
  T/C: 98 % of control
dose: 100.0 mg/kg/injection, schedule: Q01DX009 (ip), vehicle: Klucel (hydroxypropylcellulose) (HPC)
  T/C: 98 % of control

## N#CC1CCCC2OCC(c3ccccc3)N12 (stereo not given)
[1]
  T/C: 119 % of control
[2]
  T/C: 119 % of control
dose: 240.0 mg/kg/injection, schedule: Q01DX005 (ip), vehicle: Klucel (hydroxypropylcellulose) (HPC)
  T/C: 117 % of control

## ClC1CC(C(Cl)(Cl)Cl)CCC1C(Cl)(Cl)Cl (stereo not given)
dose: 50.0 mg/kg/injection, schedule: Q01DX005 (ip), vehicle: saline with Tween-80
  T/C: 98 % of control
dose: 100.0 mg/kg/injection, schedule: Q01DX005 (ip), vehicle: saline with Tween-80
  T/C: 96 % of control
dose: 200.0 mg/kg/injection, schedule: Q01DX005 (ip), vehicle: saline with Tween-80
  T/C: 96 % of control
